Data reported in patent publication US20240027453A1, “METHOD FOR DETECTION AND QUANTITATIVE MONITORING OF INFECTIONS WITH HERPESVIRUSES” (The Trustees of Princeton University, priority 2020, published 2024).
Like-named read-outs stand apart in the source and are kept apart here.

Tested on: HCMV
Type: cell-based
Conditions: L
Experimental: In example herpesvirus PRM assay methods shown herein, cell pellets were lysed in 2% SDS, 100 mM NaCl, 0.5 mM EDTA, 50 mM Tris, pH 8.2, and 50 μg of protein was reduced and alkylated with 25 mM TCEP and 50 mM CAM respectively for 20 min at 70° C. Proteins were then precipitated via methanol chloroform precipitation (Wessel & Flugg, Anal Biochem. 138(1):141-143, 1984), resuspended in 50 mM HEPES, pH 8.2 and digested overnight with trypsin (50:1 protein:enzyme w/w ratio). Digested peptides were desalted by SDB-RPS StageTip as previously described (Lum et al., Cell Syst., 7(6):[…], 2018; Greco et al., Methods Mol Biol 1410:39-63, 2016; Federspiel & Cristea, Methods Mol Biol., 1977:115-143, 2019).
Peptides (1.0 μg on column) were analyzed by LC-MS/MS using a Dionex Ultimate 3000 UHPLC coupled online to an EASYSpray ion source and a Q Exactive HF. Peptides were separated on an EASYSpray C18 column (75 μm×25 cm) heated to 50° C. using a linear gradient of 5% B to 32% B over 60 min at a flow rate of 250 nL/min and were ionized at 1.7 kv. Mobile phase A consisted of 0.1% FA in H2O and mobile phase B consisted of 0.1% FA, 2.9% H2O in ACN.
The PRM method was controlled by a peptide inclusion list with retention time windows of 6 min for selected precursor ions.
The PRM assay was developed and analyzed using the open-source software Skyline (Maclean et al., Bioinformatics 26(7):966-968, 2010). Summed area under the curve of 3-4 transitions per peptide was used for quantitation. Targeted peptides were normalized to host protein loading control peptides. Peptide values for each sample were scaled to the average of each peptide across all runs. The average of multiple peptides was used as the inferred value for the protein measurement when more than one peptide was quantified (Federspiel et al., PLoS Biol. 17(9):e3000437. Doi: 10.1371/journal.pbio.3000437). PRM quantitation data were graphed using the Python Seaborn and Matplotlib libraries.
MRC5 primary human fibroblasts (HFs) (ATCC CCL-171) were used as the model system for HSV-1 and HCMV infections and were cultured in complete growth medium (DMEM supplemented with 10% fetal bovine serum and 1% penicillin-streptomycin antibiotics) at 37° C. and 5% CO2. iSLK.219 cells harboring latent KSHV (a gift from Dr. Britt Glaunsinger, University of California, Berkeley) were grown in complete growth medium supplemented with 500 μg/ml hygromycin (ThermoFisher Scientific, 10687010) at 37° C. and 5% CO2. All cells were used for experiments within a maximum of 10 passages.
Wild type HSV-1 strain 17+ (a gift from Beate Sodeik, Hannover Medical School, Hannover, Germany) was propagated as previously described (Diner et al., 2015). Briefly, PO stocks were generated by electroporating pBAC-HSV-1 into U-2 OS cells. […] In a similar manner, wild type HCMV strain AD169 was produced from BAC electroporation into HFs and working stocks were propagated by infecting HFs at a low level. In both cases, cell-associated virus was released by sonication, combined with supernatant virus, then concentrated by ultracentrifugation (20,000 rpm, 2 hours, 4° C. with SW28 swinging bucket rotor [Beckman Coulter]) over a 10% ficoll (HSV-1) or 20% sorbitol (HCMV) cushion. Virus stock titers were determined by plaque assay for HSV-1 or tissue culture infectious dose (TCID50) for HCMV and infections were performed at a multiplicity of infection (MOI) of 3.
12 hours prior to virus infection or reactivation, cells were treated with either the small molecule drug or DMSO/PBS control at an equivalent volume. […] For infection cycles lasting longer than 24 hours, small molecule drugs were re-added to the cell culture medium every 24 hours. Upon collection, cells were rinsed with PBS, scraped into a microcentrifuge tube, pelleted by centrifugation, and rinsed again with PBS.

Nc1ccn(C[C@@H](CO)OCP(=O)(O)O)c(=O)n1 [CDV, cidofovir]
UL82 (P06726) protein, numerical value of heatmap FIG. 6C (timepoint 48): 0.2148 | UL88 (P16731) protein, numerical value of heatmap FIG. 6C (timepoint 48): 0.05021 | UL94 (P16800) protein, numerical value of heatmap FIG. 6C (timepoint 48): 0.09258 | UL99 (P13200) protein, numerical value of heatmap FIG. 6C (timepoint 48): 0.06513 | UL103 (P16734) protein, numerical value of heatmap FIG. 6C (timepoint 48): 0.1954 | UL117 (P16770) protein, numerical value of heatmap FIG. 6C (timepoint 48): 0.3875 | gH (P12824) protein, numerical value of heatmap FIG. 6C (timepoint 48): 0.1304 | gL (P16832) protein, numerical value of heatmap FIG. 6C (timepoint 48): 0.06908 | gM (P16733) protein, numerical value of heatmap FIG. 6C (timepoint 48): 0.03119 | gN (P16795) protein, numerical value of heatmap FIG. 6C (timepoint 48): 0.07597 | sp|P16809|IR11_HCMVA (P16809) protein, numerical value of heatmap FIG. 6C (timepoint 48): 0.502 | CVC1 (P16799) protein, numerical value of heatmap FIG. 6C (timepoint 72): 0.4079 | GO (P16750) protein, numerical value of heatmap FIG. 6C (timepoint 72): 0.601 | MCP (P16729) protein, numerical value of heatmap FIG. 6C (timepoint 72): 0.4006 | SCP (Q7M6N6) protein, numerical value of heatmap FIG. 6C (timepoint 72): 0.3733 | TRM2 (P16792) protein, numerical value of heatmap FIG. 6C (timepoint 72): 0.5505 | UL22A (P16845) protein, numerical value of heatmap FIG. 6C (timepoint 72): 0.4199 | UL25 (P16761) protein, numerical value of heatmap FIG. 6C (timepoint 72): 0.4606 | UL29 (P16764) protein, numerical value of heatmap FIG. 6C (timepoint 72): 0.8549 | UL30 (P16765) protein, numerical value of heatmap FIG. 6C (timepoint 72): 0.4115 | UL31 (P16848) protein, numerical value of heatmap FIG. 6C (timepoint 72): 0.4223 | UL43 (P16781) protein, numerical value of heatmap FIG. 6C (timepoint 72): 0.2402 | UL52 (P16793) protein, numerical value of heatmap FIG. 6C (timepoint 72): 0.4658 | UL76 (P16725) protein, numerical value of heatmap FIG. 6C (timepoint 72): 0.3035 | UL79 (P16752) protein, numerical value of heatmap FIG. 6C (timepoint 72): 0.4713 | UL80 (P16753) protein, numerical value of heatmap FIG. 6C (timepoint 72): 0.6581 | UL82 (P06726) protein, numerical value of heatmap FIG. 6C (timepoint 72): 0.4947 | UL88 (P16731) protein, numerical value of heatmap FIG. 6C (timepoint 72): 0.4289 | UL94 (P16800) protein, numerical value of heatmap FIG. 6C (timepoint 72): 0.5474 | UL99 (P13200) protein, numerical value of heatmap FIG. 6C (timepoint 72): 0.455 | UL103 (P16734) protein, numerical value of heatmap FIG. 6C (timepoint 72): 0.5642 | UL117 (P16770) protein, numerical value of heatmap FIG. 6C (timepoint 72): 0.5867 | gH (P12824) protein, numerical value of heatmap FIG. 6C (timepoint 72): 0.7542 | gL (P16832) protein, numerical value of heatmap FIG. 6C (timepoint 72): 0.5073 | gM (P16733) protein, numerical value of heatmap FIG. 6C (timepoint 72): 0.477 | gN (P16795) protein, numerical value of heatmap FIG. 6C (timepoint 72): 0.5141 | sp|P16809|IR11_HCMVA (P16809) protein, numerical value of heatmap FIG. 6C (timepoint 72): 0.869 | CVC1 (P16799) protein, numerical value of heatmap FIG. 6C (timepoint 96): 0.6 | GO (P16750) protein, numerical value of heatmap FIG. 6C (timepoint 96): 0.5678 | MCP (P16729) protein, numerical value of heatmap FIG. 6C (timepoint 96): 0.8755 | SCP (Q7M6N6) protein, numerical value of heatmap FIG. 6C (timepoint 96): 0.678 | TRM2 (P16792) protein, numerical value of heatmap FIG. 6C (timepoint 96): 0.8343 | UL22A (P16845) protein, numerical value of heatmap FIG. 6C (timepoint 96): 0.5842 | UL25 (P16761) protein, numerical value of heatmap FIG. 6C (timepoint 96): 0.8443 | UL29 (P16764) protein, numerical value of heatmap FIG. 6C (timepoint 96): 0.8921 | UL30 (P16765) protein, numerical value of heatmap FIG. 6C (timepoint 96): 0.5445 | UL31 (P16848) protein, numerical value of heatmap FIG. 6C (timepoint 96): 0.6245 | UL43 (P16781) protein, numerical value of heatmap FIG. 6C (timepoint 96): 0.7777 | UL52 (P16793) protein, numerical value of heatmap FIG. 6C (timepoint 96): 0.8766 | UL76 (P16725) protein, numerical value of heatmap FIG. 6C (timepoint 96): 0.421 | UL79 (P16752) protein, numerical value of heatmap FIG. 6C (timepoint 96): 0.5586
